This is an account of results in patent publication US9556179B2 (BRISTOL-MYERS SQUIBB COMPANY, priority 2012, dated 2017).

The structures appear in SMILES notation.

One assay addresses CK1δ (Homo sapiens (Human), UniProt P48730). The experiment in a line: CK1δ kinase assay (Caliper LABCHIP electrophoretic separation of fluoresceinated peptide substrate and product). Format: biochemical. As to conditions: 200 pM enzyme, 50 μM ATP, 22 hours at room temperature. In a few lines: (§1)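 Each reaction was incubated 22 hours at room temperature and terminated with EDTA. Read-out was microfluidic electrophoretic separation of fluoresceinated substrate and phospho-product.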

Another assay deals with CK1ε (Homo sapiens (Human), UniProt P49674). The experiment in a line: CK1ε kinase assay (Caliper LABCHIP electrophoretic separation of fluoresceinated peptide substrate and product). Format: biochemical. Particulars: 200 pM enzyme, 50 μM ATP, 22 hours at room temperature. The essentials:
as §1

CK1ε, sequence (P49674 whole entry): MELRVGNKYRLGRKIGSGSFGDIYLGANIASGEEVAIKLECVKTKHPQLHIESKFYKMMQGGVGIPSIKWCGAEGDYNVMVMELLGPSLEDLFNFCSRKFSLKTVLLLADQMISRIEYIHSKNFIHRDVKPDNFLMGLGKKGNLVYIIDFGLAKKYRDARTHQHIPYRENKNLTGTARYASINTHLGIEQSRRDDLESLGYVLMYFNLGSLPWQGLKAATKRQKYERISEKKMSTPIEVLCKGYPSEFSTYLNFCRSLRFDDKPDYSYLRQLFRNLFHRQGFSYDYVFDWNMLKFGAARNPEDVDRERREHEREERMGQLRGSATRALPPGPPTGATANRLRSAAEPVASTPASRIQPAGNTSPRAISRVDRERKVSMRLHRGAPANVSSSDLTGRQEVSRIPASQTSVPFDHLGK
CK1δ, sequence (P48730 whole entry): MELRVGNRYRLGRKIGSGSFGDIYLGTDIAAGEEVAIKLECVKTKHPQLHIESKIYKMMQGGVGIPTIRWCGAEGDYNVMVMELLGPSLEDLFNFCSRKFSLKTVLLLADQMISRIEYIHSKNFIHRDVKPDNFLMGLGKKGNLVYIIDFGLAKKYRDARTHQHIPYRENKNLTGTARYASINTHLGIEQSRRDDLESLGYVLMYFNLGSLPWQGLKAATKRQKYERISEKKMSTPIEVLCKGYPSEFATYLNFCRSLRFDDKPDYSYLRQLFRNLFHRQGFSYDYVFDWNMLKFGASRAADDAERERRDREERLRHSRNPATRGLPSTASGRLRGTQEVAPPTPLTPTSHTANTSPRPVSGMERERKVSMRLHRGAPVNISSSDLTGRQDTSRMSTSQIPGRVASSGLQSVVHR

Turning to `Cc1nc(-c2ccc(F)cc2)c(-c2ccc3nc(NC(=O)c4ccnc(F)c4)cn3n2)n1C1CCN(CCCF)CC1` [Compound 140, 2-fluoro-N-(6-(4-(4-fluorophenyl)-1-(1-(3-fluoropropyl)piperidin-4-yl)-2-methyl-1H-imidazol-5-yl)imidazo[1,2-b]pyridazin-2-yl)isonicotinamide], the half-maximal inhibitory concentration (IC50) (commonly the point on the concentration scale where inhibition reaches its midpoint) against CK1δ was 2.29 nM; against CK1ε, 22.2 nM.
On the same counts, the results for `COCCN1CCC(n2c(C)nc(-c3ccc(F)cc3)c2-c2ccc3nc(NC(=O)c4ccnc(F)c4)cn3n2)CC1` [Compound 141, 2-fluoro-N-(6-(4-(4-fluorophenyl)-1-(1-(2-methoxyethyl)piperidin-4-yl)-2-methyl-1H-imidazol-5-yl)imidazo [1,2-b]pyridazin-2-yl) isonicotinamide] are 1.03 nM and 16 nM.
The corresponding values for `Cc1nc(-c2ccc(F)cc2)c(-c2ccc3nc(NC(=O)c4ccnc(F)c4)cn3n2)n1C1CCN(C[C@@H](O)C(F)(F)F)CC1` [Compound 142, (R)-2-fluoro-N-(6-(4-(4-fluorophenyl)-2-methyl-1-(1-(3,3,3-trifluoro-2-hydroxypropyl)piperidin-4-yl)-1H-imidazol-5-yl)imidazo[1,2-b]pyridazin-2-yl)isonicotinamide] are 0.414 nM and 2.55 nM.
The corresponding values for `Cc1nc(-c2ccc(F)cc2)c(-c2ccc3nc(NC(=O)c4ccnc(F)c4)cn3n2)n1C1CCN(C[C@H](O)C(F)(F)F)CC1` [Compound 143, (S)-2-fluoro-N-(6-(4-(4-fluorophenyl)-2-methyl-1-(1-(3,3,3-trifluoro-2-hydroxypropyl)piperidin-4-yl)-1H-imidazol-5-yl)imidazo [1,2-b]pyridazin-2-yl)isonicotinamide] are 0.112 nM and 0.656 nM.
Consider `Cc1nc(-c2ccc(F)cc2)c(-c2ccc3nc(NC(=O)c4ccnc(F)c4)cn3n2)n1C1CCN(CCC#N)CC1` [Compound 144, N-(6-(1-(1-(2-cyanoethyl)piperidin-4-yl)-4-(4-fluorophenyl)-2-methyl-1H-imidazol-5-yl)imidazo[1,2-b]pyridazin-2-yl)-2-fluoroisonicotinamide], for which the half-maximal inhibitory concentration (IC50) turned out to be 0.254 nM against CK1δ and 1.55 nM on CK1ε.
On the same counts, the results for `Cc1nc(-c2ccc(F)cc2)c(-c2ccc3nc(NC(=O)c4ccnc(F)c4)cn3n2)n1C1CCN(CCC(F)(F)F)CC1` [Compound 145, 2-fluoro-N-(6-(4-(4-fluorophenyl)-2-methyl-1-(1-(3,3,3-trifluoropropyl)piperidin-4-yl)-1H-imidazol-5-yl)imidazo[1,2-b]pyridazin-2-yl)isonicotinamide] are 0.962 nM and 9.51 nM.
On the same counts, the results for `Cc1nc(-c2ccc(F)cc2)c(-c2ccc3nc(NC(=O)c4ccnc(F)c4)cn3n2)n1C1CCN(CCCC(F)(F)F)CC1` [Compound 146, 2-fluoro-N-(6-(4-(4-fluorophenyl)-2-methyl-1-(1-(4,4,4-trifluorobutyl)piperidin-4-yl)-1H-imidazol-5-yl)imidazo[1,2-b]pyridazin-2-yl)isonicotinamide] are 2.24 nM and 24.8 nM.
With `Cc1nc(-c2ccc(F)cc2)c(-c2ccc3nc(NC(=O)c4ccnc(F)c4)cn3n2)n1C1CCN(C(=O)c2ccsn2)CC1` [Compound 147, 2-fluoro-N-(6-(4-(4-fluorophenyl)-1-(1-(isothiazole-3-carbonyl)piperidin-4-yl)-2-methyl-1H-imidazol-5-yl)imidazo[1,2-b]pyridazin-2-yl)isonicotinamide], the values for the half-maximal inhibitory concentration (IC50) on CK1δ and on CK1ε were 0.529 nM and 4.9 nM, respectively.
On the same counts, the results for `O=C(Nc1cn2nc(-c3c(-c4ccc(F)cc4)ncn3C3CNC3)ccc2n1)c1ccnc(F)c1` [Compound 148, N-(6-(1-(azetidin-3-yl)-4-(4-fluorophenyl)-1H-imidazol-5-yl)imidazo[1,2-b]pyridazin-2-yl)-2-fluoroisonicotinamide] are 0.608 nM and 9.87 nM.
On the same counts, the results for `CN1CC(n2cnc(-c3ccc(F)cc3)c2-c2ccc3nc(NC(=O)c4ccnc(F)c4)cn3n2)C1` [Compound 149, 2-fluoro-N-(6-(4-(4-fluorophenyl)-1-(1-methylazetidin-3-yl)-1H-imidazol-5-yl)imidazo[1,2-b]pyridazin-2-yl)isonicotinamide] are 2.19 nM and 2.84 nM.
Regarding `O=C(Nc1cn2nc(-c3c(-c4ccc(F)cc4)ncn3C3CN(CCO)C3)ccc2n1)c1ccnc(F)c1` [Compound 150, 2-fluoro-N-(6-(4-(4-fluorophenyl)-1-(1-(2-hydroxyethyl)azetidin-3-yl)-1H-imidazol-5-yl)imidazo[1,2-b]pyridazin-2-yl)isonicotinamide], the half-maximal inhibitory concentration (IC50) on CK1δ is 0.034 nM; at CK1ε, 3.81 nM.
The corresponding values for `Cc1nc(-c2cccnc2)sc1C(=O)Nc1cn2nc(-c3c(-c4ccc(F)cc4)ncn3C3CNC3)ccc2n1` [Compound 153, N-(6-(1-(azetidin-3-yl)-4-(4-fluorophenyl)-1H-imidazol-5-yl)imidazo[1,2-b]pyridazin-2-yl)-4-methyl-2-(pyridin-3-yl)thiazole-5-carboxamide] are 0.204 nM and 5.29 nM.
On the same counts, the results for `Cc1nc(-c2cccnc2)sc1C(=O)Nc1cn2nc(-c3c(-c4ccc(F)cc4)ncn3C3CN(C)C3)ccc2n1` [Compound 154, N-(6-(4-(4-fluorophenyl)-1-(1-methylazetidin-3-yl)-1H-imidazol-5-yl)imidazo[1,2-b]pyridazin-2-yl)-4-methyl-2-(pyridin-3-yl)thiazole-5-carboxamide] are 0.915 nM and 8.64 nM.
On the same counts, the results for `Cc1nc(-c2cccnc2)sc1C(=O)Nc1cn2nc(-c3c(-c4ccc(F)cc4)ncn3C3CN(CCO)C3)ccc2n1` [Compound 155, N-(6-(4-(4-fluorophenyl)-1-(1-(2-hydroxyethyl)azetidin-3-yl)-1H-imidazol-5-yl)imidazo[1,2-b]pyridazin-2-yl)-4-methyl-2-(pyridin-3-yl)thiazole-5-carboxamide] are 0.451 nM and 7.48 nM.
For the compound `Cc1nc(-c2cccnc2)sc1C(=O)Nc1cn2nc(-c3c(-c4ccc(F)cc4)ncn3C3CN(C(=O)CN)C3)ccc2n1` [Compound 156, N-(6-(1-(1-(2-aminoacetyl)azetidin-3-yl)-4-(4-fluorophenyl)-1H-imidazol-5-yl)imidazo[1,2-b]pyridazin-2-yl)-4-methyl-2-(pyridin-3-yl)thiazole-5-carboxamide], the IC50 at CK1δ stood at 0.249 nM; against CK1ε, 0.976 nM.
Regarding `O=C(Nc1cn2nc(-c3c(-c4ccc(F)cc4)ncn3C3CNC3)ccc2n1)c1ccncc1` [Compound 157, N-(6-(1-(azetidin-3-yl)-4-(4-fluorophenyl)-1H-imidazol-5-yl)imidazo[1,2-b]pyridazin-2-yl)isonicotinamide], the results for the half-maximal inhibitory concentration (IC50) on CK1δ and against CK1ε were 0.587 nM and 9.93 nM, respectively.
On the same counts, the results for `CN1CC(n2cnc(-c3ccc(F)cc3)c2-c2ccc3nc(NC(=O)c4ccncc4)cn3n2)C1` [Compound 158, N-(6-(4-(4-fluorophenyl)-1-(1-methylazetidin-3-yl)-1H-imidazol-5-yl)imidazo[1,2-b]pyridazin-2-yl)isonicotinamide] are 0.854 nM and 2.73 nM.
The corresponding values for `O=C(Nc1cn2nc(-c3c(-c4ccc(F)cc4)ncn3C3CN(CCO)C3)ccc2n1)c1ccncc1` [Compound 159, N-(6-(4-(4-fluorophenyl)-1-(1-(2-hydroxyethyl)azetidin-3-yl)-1H-imidazol-5-yl)imidazo[1,2-b]pyridazin-2-yl)isonicotinamide] are 1.31 nM and 5.6 nM.
In the case of `O=C(Nc1cn2nc(-c3c(-c4ccc(F)cc4)ncn3CCN3CCOCC3)ccc2n1)c1ccncc1` [Compound 160, N-(6-(4-(4-fluorophenyl)-1-(2-morpholinoethyl)-1H-imidazol-5-yl)imidazo[1,2-b]pyridazin-2-yl)isonicotinamide], the IC50 was 0.306 nM against CK1δ and 3.21 nM on CK1ε.
On the same counts, the results for `O=C(Nc1cn2nc(-c3c(-c4ccc(F)cc4)ncn3CCN3CCOCC3)ccc2n1)c1ccnc(F)c1` [Compound 161, 2-fluoro-N-(6-(4-(4-fluorophenyl)-1-(2-morpholinoethyl)-1H-imidazol-5-yl)imidazo[1,2-b]pyridazin-2-yl) isonicotinamide] are 0.415 nM and 2.5 nM.
With `O=C(Nc1cn2nc(-c3c(-c4ccc(F)cc4)ncn3CCN3CCOCC3)ccc2n1)c1cc(F)nc(F)c1` [Compound 162, 2,6-difluoro-N-(6-(4-(4-fluorophenyl)-1-(2-morpholinoethyl)-1H-imidazol-5-yl)imidazo[1,2-b]pyridazin-2-yl)isonicotinamide], the half-maximal inhibitory concentration (IC50) amounted to 0.311 nM on CK1δ and 2.42 nM against CK1ε.
On the same counts, the results for `Cc1nc(-c2cccnc2)sc1C(=O)Nc1cn2nc(-c3c(-c4ccc(F)cc4)ncn3CCN3CCOCC3)ccc2n1` [Compound 163, N-(6-(4-(4-fluorophenyl)-1-(2-morpholinoethyl)-1H-imidazol-5-yl)imidazo [1,2-b]pyridazin-2-yl)-4-methyl-2-(pyridin-3-yl) thiazole-5-carboxamide] are 0.242 nM and 0.936 nM.
On the same counts, the results for `N#CCC(=O)Nc1cn2nc(-c3c(-c4ccc(F)cc4)ncn3CCN3CCOCC3)ccc2n1` [Compound 164, 2-cyano-N-(6-(4-(4-fluorophenyl)-1-(2-morpholinoethyl)-1H-imidazol-5-yl)imidazo [1,2-b]pyridazin-2-yl) acetamide] are 4.37 nM and 67.3 nM.
`O=C(CO)Nc1cn2nc(-c3c(-c4ccc(F)cc4)ncn3CCN3CCOCC3)ccc2n1` [Compound 165, N-(6-(4-(4-fluorophenyl)-1-(2-morpholinoethyl)-1H-imidazol-5-yl)imidazo [1,2-b]pyridazin-2-yl)-2-hydroxyacetamide]: the IC50 is 4.64 nM on CK1δ and 53.6 nM at CK1ε.
